Assay results taken from ChEMBL document CHEMBL1201861, “Genomics of Drug Sensitity in Cancer screening data, Wellcome Trust Sanger Institute”.

Assays:
[1] = tested on: CPC-N; assay: cells; type: functional, cell-based, Homo sapiens; settings: Homo sapiens, CPC-N;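 also: growth inhibition of CPC-N cells, with a cell viability assay as the readout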
Description: SANGER: Inhibition of human CPC-N cell growth in a cell viability assay.

[2] = tested on: D-336MG; assay: cells; type: functional, cell-based, Homo sapiens; settings: Homo sapiens, D-336MG
Description: SANGER: Inhibition of human D-336MG cell growth in a cell viability assay.

[3] = tested on: DMS-153; assay: cells; type: functional, cell-based, Homo sapiens; settings: Homo sapiens, DMS-153
Description: SANGER: Inhibition of human DMS-153 cell growth in a cell viability assay.

[4] = tested on: EB-3; assay: cells; type: functional, cell-based, Homo sapiens; settings: Homo sapiens, EB-3;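 also: human EB-3 cells, growth inhibition read out via a cell viability assay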
Description: SANGER: Inhibition of human EB-3 cell growth in a cell viability assay.

[5] = tested on: MC-CAR; assay: cells; type: functional, cell-based, Homo sapiens; settings: Homo sapiens, MC-CAR;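 also: growth inhibition of the human MC-CAR cell line, read out by a cell viability assay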
Description: SANGER: Inhibition of human MC-CAR cell growth in a cell viability assay.

[6] = tested on: NCCIT; assay: SANGER: Inhibition of human NCCIT cell growth in a cell viability assay.; type: functional, cell-based; settings: Homo sapiens, NCCIT
[7] = tested on: NCI-H187; assay: cells; type: functional, cell-based, Homo sapiens; settings: Homo sapiens, NCI-H187;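 also: growth inhibition of NCI-H187 cells, read out as cell viability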
Description: SANGER: Inhibition of human NCI-H187 cell growth in a cell viability assay.

[8] = tested on: NCI-H322M; assay: cells; type: functional, cell-based, Homo sapiens; settings: Homo sapiens, NCI-H322M;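 also: cell viability assay measuring inhibition of growth of human NCI-H322M cells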
Description: SANGER: Inhibition of human NCI-H322M cell growth in a cell viability assay.

[9] = tested on: NCI-H64; assay: cells; type: functional, cell-based, Homo sapiens; settings: Homo sapiens, NCI-H64;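 also: growth inhibition of NCI-H64 cells, read out with a cell viability assay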
Description: SANGER: Inhibition of human NCI-H64 cell growth in a cell viability assay.

[10] = tested on: NCI-H719; assay: cells; type: functional, cell-based, Homo sapiens; settings: Homo sapiens, NCI-H719;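 also: growth inhibition of the cultured cell line, read out with a viability assay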
Description: SANGER: Inhibition of human NCI-H719 cell growth in a cell viability assay.

[11] = tested on: P31-FUJ; assay: cells; type: functional, cell-based, Homo sapiens; settings: Homo sapiens, P31-FUJ;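 also: growth inhibition of P31-FUJ cells, read out with a viability assay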
Description: SANGER: Inhibition of human P31-FUJ cell growth in a cell viability assay.

[12] = tested on: SK-MM-2; assay: cells; type: functional, cell-based, Homo sapiens; settings: Homo sapiens, SK-MM-2;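 also: growth inhibition of human SK-MM-2 cells, read out with a cell viability assay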
Description: SANGER: Inhibition of human SK-MM-2 cell growth in a cell viability assay.

[13] = tested on: TUR; assay: cells; type: functional, cell-based, Homo sapiens; settings: Homo sapiens, TUR;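 also: growth inhibition of human TUR cells, read out with a cell viability assay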
Description: SANGER: Inhibition of human TUR cell growth in a cell viability assay.

[14] = tested on: K052; assay: cells; type: functional, cell-based, Homo sapiens; settings: Homo sapiens, K052;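 also: Read-out from a cell viability assay, IC50 reflecting suppression of K052 cell growth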
Description: SANGER: Inhibition of human K052 cell growth in a cell viability assay.

SMILES	IC50 [1]	IC50 [2]	IC50 [3]	IC50 [4]	IC50 [5]	IC50 [6]	IC50 [7]	IC50 [8]	IC50 [9]	IC50 [10]	IC50 [11]	IC50 [12]	IC50 [13]	IC50 [14]
CC[C@H](CO)Nc1nc(NCc2ccccc2)c2ncn(C(C)C)c2n1 [SELICICLIB]	> 16000 nM	> 16000 nM	> 16 µM	> 16 µM	> 16000 nM	7.55 µM	> 16 µM	> 16 µM	> 16 µM	> 16 µM	> 16 µM	> 16 µM	> 16 µM	
CC(=O)O[C@H]1C(=O)[C@@]2(C)[C@H]([C@H](OC(=O)c3ccccc3)[C@]3(O)C[C@H](OC(=O)[C@H](O)[C@@H](NC(=O)c4ccccc4)c4ccccc4)C(C)=C1C3(C)C)[C@]1(OC(C)=O)CO[C@@H]1C[C@@H]2O [PACLITAXEL]	30.8 nM	> 102 nM	> 0.102 µM	> 0.102 µM	23.3 nM	0.0177 µM	> 0.102 µM	> 0.102 µM	0.0386 µM	> 0.102 µM	> 0.102 µM	> 0.102 µM	> 0.102 µM	32.5 nM
CCN(CC)CCNC(=O)c1c(C)[nH]c(/C=C2\C(=O)Nc3ccc(F)cc32)c1C [SUNITINIB]	> 8000 nM	> 8000 nM	> 8 µM	> 8 µM	> 8000 nM	> 8 µM	> 8 µM	> 8 µM	> 8 µM	> 8 µM	> 8 µM	5.48 µM	> 8 µM	2400 nM
Cc1ccc(-c2c(C(=O)CCl)n(CCCO)c3ncnc(N)c23)cc1	> 4000 nM	> 4000 nM	> 4 µM	> 4 µM	> 4000 nM	> 4 µM	> 4 µM	> 4 µM	> 4 µM	> 4 µM	> 4 µM	> 4 µM	> 4 µM	> 4000 nM
OCCCNc1cc(-c2ccnc(Nc3cccc(Cl)c3)n2)ccn1	> 256 nM	109 nM	> 0.256 µM	0.0648 µM	121 nM	0.0485 µM	> 0.256 µM	> 0.256 µM	0.0903 µM	> 0.256 µM	> 0.256 µM	0.124 µM	> 0.256 µM	> 256 nM
N[C@@H](CSC(c1ccccc1)(c1ccccc1)c1ccccc1)C(=O)O [S-TRITYL-L-CYSTEINE]	2460 nM	> 5120 nM	> 5.12 µM	> 5.12 µM	1210 nM	2.39 µM	> 5.12 µM	> 5.12 µM	3.48 µM	> 5.12 µM	> 5.12 µM	> 5.12 µM	> 5.12 µM	971 nM
COc1cc(-c2nn([C@H]3CC[C@H](N4CCN(C(C)=O)CC4)CC3)c3ncnc(N)c23)ccc1NC(=O)c1cc2ccccc2n1C	> 5120 nM	212 nM	> 5.12 µM	> 5.12 µM	> 5120 nM	> 5.12 µM	> 5.12 µM	> 5.12 µM	> 5.12 µM	> 5.12 µM	> 5.12 µM	> 5.12 µM	> 5.12 µM	> 5120 nM
COc1cc(N2CCN(C)CC2)ccc1Nc1ncc2c(n1)N(C)c1ccccc1C(=O)N2C	> 8000 nM	769 nM	> 8 µM	> 8 µM	> 8000 nM	4.15 µM	> 8 µM	> 8 µM	> 8 µM	> 8 µM	> 8 µM	2.59 µM	> 8 µM	6240 nM
C#Cc1cccc(Nc2ncnc3cc(OCCOC)c(OCCOC)cc23)c1 [ERLOTINIB]	> 2000 nM	> 2000 nM	> 2 µM	> 2 µM	> 2000 nM	> 2 µM	> 2 µM	> 2 µM	> 2 µM	> 2 µM	> 2 µM	> 2 µM	> 2 µM	
